According to patent US20040009973A1, “Novel potassium channels modulators” (4SC AG, priority 2002, published 2004):

Biological target: T1, BK potassium channel, cloned hSlo (α-hSlo and β-bSlo) in CHO cells (Homo sapiens, UniProt Q12791)
T1 construct: expressed in transfected cells; host or cells: CHO cells, permanently transfected
Assay: Em-Assay: membrane potential with voltage sensitive dye DiBAC(4)3, fluorescence plate reader
Format: cell-based
Conditions: compound 50 μM; NS004 25 or 50 μM; hSlo transfected CHO cells; change in DiBAC(4)3 fluorescence intensity
Text: The large conductance, voltage-dependent and Ca^2+-activated potassium channel BK is a potassium selective ion channel and belongs to the subfamily of KCa channels. Four BK alpha-subunits form a functional channel that can be regulated by intracellular Ca^2+ concentration, membrane voltage, and other mechanisms like phosphorylation states or beta subunits. To test the biological activity of the compounds, we applied two different techniques, a fluorescence based assay using a voltage sensitive dye (Em-Assay) as well as exploiting electrophysiological methods.
CHO cells permanently transfected with cloned hSlo (α-hSlo and β-bSlo), yielding typical BK potassium currents (Zhou et al., Pflügers Arch., 436: 725-734 (1998), were used for the evaluation of compound activity. Activation or inhibition of BK channels in these cells leads to a change of the electrochemical gradient causing a hyperpolarized or depolarised membrane potential, respectively.
To determine changes in the membrane potential of the cells we used the voltage sensitive dye DiBAC(4)3 (Molecular Probes) in a kinetic assay system using a fluorescent plate reader (Manning and Sontheimer, J. Neurosci, Meth., 91: 73-81 (1999). The anionic bis-oxonol DiBAC(4)3 is a voltage sensitive dye which partitions from the extracellular environment into the cell where it reversibly binds to intracellular proteins, a kinetic process depending on the membrane potential of the cell. At depolarised potentials (i.e. at a reduced K^+ efflux due to blocked K^+ channels) the dye accumulates in the cell leading to an increased fluorescence intensity, due to its increased fluorescence if bound to cellular proteins. At hyperpolarized potentials (i.e. at an increased K^+ efflux due to the opening of K^+ channels), the dye partitions out of the cell causing a decreased fluorescence intensity.
hSlo transfected CHO cells where maintained in DMEM supplemented with 10% FCS, 250 μg/ml Geneticin, 100 μg/ml Hygromycin, 1×HT-Supplement, and 1×Non-essential Amino Acids and cultured in a humidified CO2 incubator. After trypsination, cells where plated with a density of 5×10^4 cells per well on a clear 96-well plate and incubated for 24 h. Cells where washed once with PBS, once with PBS containing 20 mM HEPES (adjusted to pH 7.4 with NaOH) and 2 μM DIBAC(4)3 (DPBS-DiBAC solution). 180 μl of the dPBS-DiBAC solution was then added to the cells and the plate incubated for 30-60 min at 37° C. During this time the dye could partition into the cells and reach a certain steady-state distribution, depending on the resting membrane potential. Test and reference compounds were stored as DMSO stock solutions and diluted in dPBS-DiBAC solution to the desired concentration.
Fluorescence intensity (Ex.: 485 nm/Em.: 520 nm) of each well was detected in the plate reader (Fluostar, BMG) every 60 seconds. After recording the baseline fluorescence for 7 minutes, 20 μl test—and reference compounds were added and the fluorescence intensity was detected for additional 15 minutes. Background was subtracted, data values were normalized and expressed as a change in fluorescence intensity against time. The change in fluorescence intensity caused by the test compounds was evaluated, compared to the effect of the reference compound NS004, and the ratio was determined (see Table I).

T1 sequence (Q12791 1-1178 isoform Q12791-5): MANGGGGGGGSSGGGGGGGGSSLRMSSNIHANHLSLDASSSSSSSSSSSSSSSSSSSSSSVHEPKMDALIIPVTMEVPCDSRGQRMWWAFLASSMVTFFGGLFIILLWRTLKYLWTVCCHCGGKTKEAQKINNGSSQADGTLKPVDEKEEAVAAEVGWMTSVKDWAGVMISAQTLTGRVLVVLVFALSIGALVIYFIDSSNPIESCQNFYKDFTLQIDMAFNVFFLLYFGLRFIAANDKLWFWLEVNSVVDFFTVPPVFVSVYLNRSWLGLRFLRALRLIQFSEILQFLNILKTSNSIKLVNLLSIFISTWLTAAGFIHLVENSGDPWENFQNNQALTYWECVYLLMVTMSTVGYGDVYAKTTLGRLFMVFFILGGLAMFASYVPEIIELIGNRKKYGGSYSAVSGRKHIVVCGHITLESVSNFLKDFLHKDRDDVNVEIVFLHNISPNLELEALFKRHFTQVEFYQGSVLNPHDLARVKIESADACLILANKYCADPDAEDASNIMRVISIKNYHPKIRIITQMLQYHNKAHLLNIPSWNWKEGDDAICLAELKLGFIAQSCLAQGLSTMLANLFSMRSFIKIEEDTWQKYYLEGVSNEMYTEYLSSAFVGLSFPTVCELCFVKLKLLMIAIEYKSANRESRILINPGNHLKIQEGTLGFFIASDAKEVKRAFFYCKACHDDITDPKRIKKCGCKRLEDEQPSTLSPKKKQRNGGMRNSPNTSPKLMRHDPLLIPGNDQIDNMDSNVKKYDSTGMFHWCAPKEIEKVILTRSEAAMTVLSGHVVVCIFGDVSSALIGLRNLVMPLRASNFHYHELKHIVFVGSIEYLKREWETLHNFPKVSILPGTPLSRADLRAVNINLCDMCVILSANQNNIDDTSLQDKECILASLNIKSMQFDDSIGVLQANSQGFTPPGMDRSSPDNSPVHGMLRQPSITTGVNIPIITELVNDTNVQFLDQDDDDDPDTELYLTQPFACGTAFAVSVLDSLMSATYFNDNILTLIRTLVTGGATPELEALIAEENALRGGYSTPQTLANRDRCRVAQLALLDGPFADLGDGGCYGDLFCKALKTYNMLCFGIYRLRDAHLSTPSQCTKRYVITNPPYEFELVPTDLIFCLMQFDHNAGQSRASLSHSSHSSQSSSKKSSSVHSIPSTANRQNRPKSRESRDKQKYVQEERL
T1 sequence (Q28067 2-191 partner limits assumed): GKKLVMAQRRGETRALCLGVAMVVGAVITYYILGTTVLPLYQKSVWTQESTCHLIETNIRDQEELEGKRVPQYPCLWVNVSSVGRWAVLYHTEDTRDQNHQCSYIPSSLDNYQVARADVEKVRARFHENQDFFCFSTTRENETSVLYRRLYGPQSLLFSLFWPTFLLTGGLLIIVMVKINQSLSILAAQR

SMILES | Em effect: ratio of the compound effect compared to the maximal effect of NS004
Cc1cc(NCc2cccc(Cl)c2)ccc1NCc1cccc(Cl)c1 [Compound 17] | + (0-1 = +)
CC(C)(C)c1ccc(CNc2cccc(NCc3ccc(C(C)(C)C)cc3)c2)cc1 [Compound 36, N,N′-bis-(4-tert-butylbenzyl)-benzene-1,3-diamine] | ++ (>1-1.5 = ++)
O=[N+]([O-])c1ccc(CNc2ccc(NCc3cccc(Cl)c3)cc2Cl)cc1 [Compound 24] | + (0-1 = +)
Clc1cc(NCc2ccc(-c3csnn3)cc2)ccc1NCc1ccc(-c2csnn2)cc1 [Compound 88] | + (0-1 = +)
Fc1cccc(F)c1CNc1cccc(NCc2cccc(Cl)c2)c1 [Compound 57, N-(3-chlorobenzyl)-N′-(2,6-difluorobenzyl)-benzene-1,3-diamine] | + (0-1 = +)
Clc1cc(NCc2ccc(-c3csnn3)cc2)c(Cl)cc1NCc1ccc(-c2csnn2)cc1 [Compound 89] | + (0-1 = +)
CS(=O)(=O)c1ccc(CNc2cccc(NCc3ccccc3C(F)(F)F)c2)cc1 [Compound 63, N-(4-methanesulfonylbenzyl)-N′-(2-tri-fluoromethylbenzyl)-benzene-1,3-diamine] | + (0-1 = +)
CC(C)(C)c1ccc(CNc2cccc(NCc3ccc(-c4csnn4)cc3)c2)cc1 [Compound 41] | + (0-1 = +)
FC(F)(F)c1ccc(CNc2cc(NCc3ccc(C(F)(F)F)cc3)cc(C(F)(F)F)c2)cc1 [Compound 70, 5-trifloromethyl-N,N′-bis-(4-trifluoromethylbenzyl)-benzene-1,3-diamine] | + (0-1 = +)
FC(F)(F)c1cc(NCc2ccc(Br)cc2)cc(NCc2cccc(Cl)c2)c1 [Compound 5] | ++ (>1-1.5 = ++)
N#Cc1ccccc1-c1ccc(CNc2cccc(NCc3ccc(-c4ccccc4C#N)cc3)c2)cc1 [Compound 30] | + (0-1 = +)
O=[N+]([O-])c1ccc(CNc2cccc(NCc3ccc([N+](=O)[O-])cc3)c2)cc1 [Compound 10] | + (0-1 = +)
CC(C)(C)c1ccc(CNc2cc(NCc3csc4ccc(Cl)cc34)cc(C(F)(F)F)c2)cc1 [Compound 78] | + (0-1 = +)
CC(C)(C)c1ccc(CNc2cccc(NCc3csc4ccc(Cl)cc34)c2)cc1 [Compound 40] | + (0-1 = +)
Cc1cc(NCc2ccc(S(C)(=O)=O)cc2)ccc1NCc1ccc(S(C)(=O)=O)cc1 [Compound 86] | + (0-1 = +)
c1ccc(CNc2cccc(NCc3ccccc3)c2)cc1 [Compound 9, N,N′-Dibenzylbenzene-1,3-diamine] | + (0-1 = +)
COc1cccc(CNc2cc(NCc3csc4ccc(Cl)cc34)cc(C(F)(F)F)c2)c1 [Compound 81] | + (0-1 = +)
FC(F)(F)c1ccccc1CNc1ccc(NCc2ccccc2C(F)(F)F)c(Cl)c1 [Compound 104, 2-chloro-N^1,N^4-bis-(2-trifluoromethylbenzyl)-benzene-1,4-diamine] | + (0-1 = +)
Cc1cc(NCc2ccc3ccccc3c2)ccc1NCc1ccc2ccccc2c1 [Compound 16] | + (0-1 = +)
